From patent US7008949B2, “Heterocyclic compounds which inhibit leukocyte adhesion mediated by α4 integrins” (Elan Pharmaceuticals, Inc., priority 2003, dated 2006)

Tests used:
α4β1 Integrin = target: T1, α4β1 Integrin (Homo sapiens, UniProt P05556+P13612); assay: α4β1 Integrin Adhesion Assay: Jurkat cell adhesion to human plasma fibronectin; assay type: cell-based; conditions: Jurkat cells
T1 construct: endogenous in cells; host or cells: Jurkat cells
Method: 96 well plates (Costar 3590 EIA plates) were coated with human fibronectin (Gibco/BRL, cat #33016-023) at a concentration of 10 μg/mL overnight at 4° C. The plates were then blocked with a solution of bovine serum albumin (BSA; 0.3%) in saline. Jurkat™ cells (maintained in log phase growth) were labeled with Calcein AM according to the manufacturer's instructions, and suspended at a concentration of 2×10^6 cells/mL in Hepes/Saline/BSA. The cells were then exposed to test and control compounds for 30 minutes at room temperature before transfer to individual wells of the fibronectin coated plate. Adhesion was allowed to occur for 35 minutes at 37° C. The wells were then washed by gentle aspiration and pipetting with fresh saline. Fluorescence associated with the remaining adherent cells was quantified using a fluorescence plate reader at EX 485/EM 530.
Cell cultures were prepared by first splitting the stationary phase Jurkat™ cells at 1:10 on day one, and 1:2 on day two to perform assay on day 3. The cells split 1:10 on day one were split 1:4 on day 3 for a day 4 assay.
The assay plates were prepared by first making a working solution of Gibco/BRL Human Fibronectin (cat # 33016-023) in PBS++, at 10 μg/mL.
A Costar 3590 EIA plate was then coated with 50 μL/well for 2 hours at room temperature (thought it can also be left overnight at 4° C.). Finally the plate was asperated and blocked with Hepes/Saline Buffer, 100 μL/well, for 1 hour at RT followed by washing three times with 150 μL of PBS++.
Compound dilutions were accomplished by preparing 1:3 serial dilutions of compounds as follows. For each plate (4 compounds/plate) 600 μL were added to 4 Bio-Rad Titertubes in a Titertube rack. Enough compound was added to each appropriate tube to give a 2× concentration using methods well known in the art. Using Falcon Flexiplates, 100 μL of Hepes/Saline buffer or human serum were added to rows B through G. A multi-channel pipetter set to 180 μL was used to with four tips spaced evenly the pipetter. Each set of four tubes was mixed 5 times and 180 μL of 2× compound was transferred to the first column of each compound dilution in Row B, leaving Row A empty. 180 μL were added to the other wells in Row A. Serial dilutions were performed down the plate by transferring 50 μL to the next dilution and mixing 5 times, changing tips each time after mixing. Dilutions were stopped at Row F. Row G had no compound present.
A 20 μg/mL solution in Hepes/Saline buffer or human serum, of 21/6 antibody was the positive control and was set aside in a reagent trough to add to cell suspension plate.
The cell staining was accomplished by first harvesting the log-phase Jurkat™ cells by centrifugation in 50 mL tubes (1100 rpm for 5 minutes). The cells were resuspended in 50 mL PBS++, spun, and resuspend in 20 mL PBS++. The cells were stained by adding 20 μL of Calcein AM for 30 minutes R.T. The volume was brought to 50 mL with Hepes/Saline buffer and the cells were counted, spun, and resuspend to 2×10^6 cells/mL in Hepes/Saline buffer or human serum.
The compounds were incubated using the following procedure. In a new flexiplate, 65 μL of stained cells were added to Rows B through H. Then 65 μL of 2× compounds were added to the appropriate rows following the plate setup and mixed 3×. 65 μL of 2×-21/6 antibody were added to Row H and mixed 3×. Finally the plate was incubated at room temperature for 30 minutes.
Fibronectin adhesion was measured using a fluorescent plate reader at EX 485/EM 530 after the following work up procedure. After incubation, the cells were mixed 3× and 100 μL were transferred to the Fibronectin coated plates and incubated at 37° C. for about 35 minutes. Each plate was washed, row by row, by gently pipetting 100 μL of R.T. PBS++ down the sides of the wells and turning the plate 90 degrees to aspirate. This procedure was repeated for a total of 3 washes. Each well was filled with 100 μL after washing by pipetting down the side of the well. […]

[1] = Cassette dosing and serum analysis for determination of oral bioavailability; assay type: in vivo, rat; conditions: male SD rats, oral cassette of 6 compounds, total dose 10 mg/kg, plasma at 4, 8, 12 h
Method: The oral bioavailability was screened by dosing rats with a cassette, i.e. mixture of 6 compounds per dosing solution. The cassette included 5 test articles and a standard compound, for a total dose of 10 mg/kg. Each compound/test article was converted to the sodium salt with equimolar 1 N NaOH and dissolved in water at 2 mg/mL. The cassette was prepared by mixing equal volumes of each of the six solutions. The cassette dosing solution was mixed well and then the pH was adjusted to 7.5–9. The dosing solution was prepared the day before the study and stirred overnight at room temperature.
Male Sprague Dawley (SD) rats from Charles River Laboratories, 6–8 weeks old were used in this screen. Rats were quarantined for at least one day and had continuous access to food and water. On the night before the administration of the cassette, the rats were fasted for approximately 16 h.
Four SD rats were assigned in each cassette. A single dose of the dosing solution was administered orally to each rat. The dosing volume (5 mL/kg) and time were recorded and rats were fed 2 h after dosing.
Blood samples were collected via cardiac puncture at the following time points: 4 h, 8 h and 12 h. Immediately prior to blood collection, rats were anesthetized with CO2 gas within 10–20 seconds. After the 12-hour samples were collected, the rats were euthanized via CO2 asphyxiation followed by cervical dislocation.
Blood samples were kept in heparinized microtainer tubes under sub-ambient temperature (4° C.) before they were processed. Blood samples were centrifuged (10000 rpm for 5 minutes) and plasma samples were removed and stored in a −20° C. freezer until analyzed for drug levels. Drug levels in the plasma were analyzed using the following protocol for direct plasma precipitation.
The in vivo plasma samples were prepared in a 1.5 mL 96-well plate, by adding, in order, 100 μL of the test plasma, 150 μL of methanol, followed by vortexing for 10–20 seconds. 150 μL of 0.05 ng/μL of an Internal Standard in acetonitrile were added and vortexed for 30 seconds.
The standard curve samples were prepared in a 1.5 mL 96-well plate, by adding, in order, 100 μL of control mouse plasma, followed by 150 μL of methanol and vortexing for 10–20 seconds. 150 μL of 0.05 ng/μL of an Internal Standard in acetonitrile were added and vortexed for 30 seconds. The samples were spiked with 0–200 ng (10 concentrations) of the compound of interest in 50% methanol to obtain a standard curve range of 0.5 ng/mL–2,000 ng/mL. Again, the sample was vortexed for 30 seconds.
The samples were then spun for 20–30 minutes at 3000 rpm in an Eppendorf microfuge before 80–90% of supernatant was transferred into a clean 96-well plate. The organic solvent was then evaporated until the samples were dry (under N2 at 40° C./30–60 min (ZymarkTurbovap)).
The residue was then dissolved in […] mobile phase (50% CH3OH/0.1% TFA). LC/MS/MS was then run using a PE-Sciex API-3000 triple quadurpole mass spectrometer (SN0749707), Perkin-Elmer, Series200auto-sampler, and shimadzu 10A pump. Acquisition was done with PE-Sciex Analyst (v1.1) and data analysis and quantification were accomplished using PE-Sciex Analyst (v1.1). A 5–50 μL sample volume was injected onto a reverse phase ThermoHypersil DASH-18 column (Keystone 2.0×20 mm, 5 μm, PN: 8823025-701) using a mobile phase of 25% CH3OH, 0.1% TFA-100% CH3OH, 0.1% TFA. The run time was about 8 minutes at a flow rate of about 300 μL/minutes.
The Area Under the Curve (AUC) was calculated using the linear trapezoidal rule from t=0 to the last sampling time tx (see Handbook of Basic Pharmacokinetics, Wolfgang A. Ritschel and Gregory L. Kearns, 5th ed, 1999). AUC^0→tx═S((Cn+Cn+1)/2))·(tn+1−tn)[(μg/mL)h]
In the case of the cassette dosing paradigm, samples at 4, 8 and 12 h post extravascular dosing, the AUC was calculated from t=0 to t=12 h.

[2] = IC50, Cell Adhesion to Human Plasma Fibronectin (With Human Serum), with human serum
[3] = IC50, Cell Adhesion to Human Plasma Fibronectin (Without the Human Serum), without human serum

T1 sequence (P13612 34-1032): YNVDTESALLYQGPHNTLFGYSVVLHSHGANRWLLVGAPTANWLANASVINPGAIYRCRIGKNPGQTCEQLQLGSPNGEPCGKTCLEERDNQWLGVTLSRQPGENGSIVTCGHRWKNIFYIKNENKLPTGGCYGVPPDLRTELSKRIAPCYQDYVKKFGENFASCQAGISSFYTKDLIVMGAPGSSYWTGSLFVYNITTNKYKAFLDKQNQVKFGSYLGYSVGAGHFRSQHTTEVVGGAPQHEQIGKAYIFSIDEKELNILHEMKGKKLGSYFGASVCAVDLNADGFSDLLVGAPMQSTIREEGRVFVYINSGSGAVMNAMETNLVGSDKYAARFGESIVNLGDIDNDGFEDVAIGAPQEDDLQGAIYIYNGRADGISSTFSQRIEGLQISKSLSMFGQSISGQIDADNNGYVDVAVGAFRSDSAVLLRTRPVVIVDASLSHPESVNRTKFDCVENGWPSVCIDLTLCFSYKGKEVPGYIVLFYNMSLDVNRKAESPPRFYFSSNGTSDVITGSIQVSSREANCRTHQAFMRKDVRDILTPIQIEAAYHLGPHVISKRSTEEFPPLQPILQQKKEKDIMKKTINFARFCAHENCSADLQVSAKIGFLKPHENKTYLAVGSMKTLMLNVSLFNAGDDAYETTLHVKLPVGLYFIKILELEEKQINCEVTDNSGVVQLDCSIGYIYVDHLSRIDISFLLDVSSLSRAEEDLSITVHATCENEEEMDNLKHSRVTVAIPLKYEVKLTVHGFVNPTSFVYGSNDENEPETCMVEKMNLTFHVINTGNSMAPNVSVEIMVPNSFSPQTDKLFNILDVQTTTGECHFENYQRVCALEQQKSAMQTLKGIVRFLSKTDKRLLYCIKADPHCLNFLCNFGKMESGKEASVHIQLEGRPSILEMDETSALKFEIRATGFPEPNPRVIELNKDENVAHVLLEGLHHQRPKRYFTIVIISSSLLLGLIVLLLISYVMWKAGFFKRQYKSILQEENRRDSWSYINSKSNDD
T1 sequence (P05556 21-798): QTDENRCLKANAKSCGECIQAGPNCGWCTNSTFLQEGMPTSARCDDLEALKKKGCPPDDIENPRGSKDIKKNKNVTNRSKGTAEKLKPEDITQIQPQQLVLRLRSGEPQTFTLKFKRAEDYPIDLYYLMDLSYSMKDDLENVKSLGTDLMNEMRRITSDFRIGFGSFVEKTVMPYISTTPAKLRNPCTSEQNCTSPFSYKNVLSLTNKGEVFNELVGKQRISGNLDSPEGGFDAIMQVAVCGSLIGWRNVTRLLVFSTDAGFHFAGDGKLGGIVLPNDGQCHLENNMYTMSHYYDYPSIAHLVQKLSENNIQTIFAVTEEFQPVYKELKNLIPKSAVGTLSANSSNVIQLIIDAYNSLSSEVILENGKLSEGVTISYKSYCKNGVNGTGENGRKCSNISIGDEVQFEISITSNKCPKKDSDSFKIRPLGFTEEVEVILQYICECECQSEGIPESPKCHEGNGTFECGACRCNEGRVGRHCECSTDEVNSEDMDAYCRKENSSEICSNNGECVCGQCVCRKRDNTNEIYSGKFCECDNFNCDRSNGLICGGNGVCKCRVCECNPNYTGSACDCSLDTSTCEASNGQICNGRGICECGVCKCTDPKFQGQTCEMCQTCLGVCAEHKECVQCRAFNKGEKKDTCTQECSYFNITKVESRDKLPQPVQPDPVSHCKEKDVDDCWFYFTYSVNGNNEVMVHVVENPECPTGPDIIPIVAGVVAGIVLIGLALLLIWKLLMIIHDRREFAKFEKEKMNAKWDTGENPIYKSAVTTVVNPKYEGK

| Compound | IC50 (α4β1 Integrin; [2]) [µM] | IC50 (α4β1 Integrin; [3]) [µM] | AUC (average AUC 0→12 h) [1] | IC50, Cell Adhesion to Human Plasma Fibronectin (With Human Serum) (α4β1 Integrin; with human serum) [µg/mL] | IC50, Cell Adhesion to Human Plasma Fibronectin (Without the Human Serum) (α4β1 Integrin; without human serum) [µg/mL] |
| --- | --- | --- | --- | --- | --- |
| CCN(CC)c1ncc(N(CC)S(=O)(=O)c2ccc(F)cc2F)c(N[C@@H](Cc2ccc(OC(=O)N(C)C)cc2)C(=O)O)n1 [Example 18] | 0.0403 | 0.00322 | 0.2578 (μg/mL)h | – | – |
| 2-{2-diethylamino-5-[(2-fluorobenzenesulfonyl)methylamino]pyrimidin-4-ylamino}-3-(4-dimethylcarbamoyloxyphenyl)propionic acid [Example 6] | – | – | 0.6538 (μg/mL)h | 0.3138 | 0.000511 |
| CCN(CC)c1ncc(N(C(C)C)S(=O)(=O)c2ccc(F)cc2)c(N[C@@H](Cc2ccc(OC(=O)N(C)C)cc2)C(=O)O)n1 [Example 8] | 0.264 | 0.00487 | 0.5088 (μg/mL)h | – | – |
| CCN(CC)c1ncc(N(C(C)C)S(=O)(=O)c2ccc(F)c(F)c2)c(NC(Cc2ccc(OC(=O)N(C)C)cc2)C(=O)O)n1 (stereo not drawn) [Example 10, 2-{2-diethylamino-5-[(3,4-difluorobenzenesulfonyl)isopropylamino]pyrimidin-4-ylamino}-3-(4-dimethylcarbamoyloxyphenyl) propionic acid] | 0.404 | 0.00733 | 0.1215 (μg/mL)h | – | – |
| CCN(CC)c1ncc(N(CC2CC2)S(=O)(=O)c2ccc(F)cc2)c(N[C@@H](Cc2ccc(OC(=O)N(C)C)cc2)C(=O)O)n1 [Example 14, 2-{2-diethylamino-5-[(4-fluorobenzenesulfonyl)cylclopropylmethylamino]pyrimidin-4-ylamino}-3-(4-dimethylcarbamoyl-oxyphenyl)propionic acid] | 0.0636 | 0.00159 | 0.7164 (μg/mL)h | – | – |
| CCN(CC)c1ncc(N(C)S(=O)(=O)c2cc(Cl)cc(Cl)c2)c(N[C@@H](Cc2ccc(OC(=O)N(C)C)cc2)C(=O)O)n1 [Example 19] | 0.133 | 0.00531 | 0.0697 (μg/mL)h | – | – |
| CCN(CC)c1ncc(N(C(C)C)S(=O)(=O)c2ccc(Cl)cc2)c(N[C@@H](Cc2ccc(OC(=O)N(C)C)cc2)C(=O)O)n1 [Example 11] | 0.362 | 0.00385 | 0.4251 (μg/mL)h | – | – |
| 2-{2-diethylamino-5-[(4-fluorobenzenesulfonyl)allylamino]pyrimidin-4-ylamino}-3-(4-dimethylcarbamoyloxyphenyl)propionic acid [Example 22] | – | – | 0.6297 (μg/mL)h | 0.02529 | 0.001506 |
| CCN(CC)c1ncc(N(CC(F)(F)F)S(=O)(=O)c2ccc(F)cc2)c(NC(Cc2ccc(OC(=O)N(C)C)cc2)C(=O)O)n1 (stereo not drawn) [Example 29, 2-{2-diethylamino-5-[(4-fluorobenzenesulfonyl)-(2,2,2-trifluoroethyl)amino]pyrimidin-4-ylamino}-3-(4-dimethylcarbamoyloxyphenyl)propionic acid] | 0.053 | 0.00335 | 0.2941 (μg/mL)h | – | – |
| CCN(CC)c1ncc(N(CC)S(=O)(=O)c2cc(F)cc(F)c2)c(N[C@@H](Cc2ccc(OC(=O)N(C)C)cc2)C(=O)O)n1 [Example 16, 2-{2-diethylamino-5-[(3.5-difluorobenzenesulfonyl)ethylamino]pyrimidin-4-ylamino}-3-(4-dimethylcarbamoyloxyphenyl) propionic acid] | 0.108 | 0.00167 | 0.1721 (μg/mL)h | – | – |
| 2-{2-diethylamino-5-[(4-chlorobenzenesulfonyl)methylamino]pyrimidin-4-ylamino}-3-(4-dimethylcarbamoyloxyphenyl)propionic acid [Example 2] | – | – | 1.8689 (μg/mL)h | 0.317 | 0.002 |
| CCN(CC)c1ncc(N(CC)S(=O)(=O)c2cc(Cl)cc(Cl)c2)c(N[C@@H](Cc2ccc(OC(=O)N(C)C)cc2)C(=O)O)n1 [Example 20] | 0.119 | 0.00782 | 0.0536 (μg/mL)h | – | – |
| C#CCN(c1cnc(N(CC)CC)nc1NC(Cc1ccc(OC(=O)N(C)C)cc1)C(=O)O)S(=O)(=O)c1ccc(F)cc1F (stereo not drawn) [Example 28, 2-{2-Diethylamino-5-[(2,4-difluorobenzenesulfonyl)propargylamino]pyrimidin-4-ylamino}-3-(4-dimethylcarbamoyloxyphenyl)propionic acid] | 0.0729 | 0.00634 | 0.7968 (μg/mL)h | – | – |
